Columns and labels:
[1] = biological target: T1, human PTPRZ1 (whole intracellular region, D1+D2) (Homo sapiens, UniProt P23471); experiment: In vitro PTPase assay (DiFMUP), PTPRZ1 whole intracellular region; assay type: biochemical
T1 construct: Recombinant proteins corresponding to the entire intracellular regions (ICRs) of PTPRZ1, PTPRA, and PTPRM; made in house; host or cells: baculovirus-silkworm expression system
Procedure: Figure 4 NAZ2329, an allosteric inhibitor of R5 RPTP subfamily members. (A) Structure of NAZ2329. (B) Effect of preincubation of NAZ2329 on its inhibitory activity against PTPRZ. Recombinant human PTPRZ1 enzyme (the whole intracellular region) was premixed with NAZ2329 for the indicated times and followed by addition of a fluorogenic DiFMUP (non-specific PTP substrate, 6,8-difluoro-4-methylumbiliferyl phosphate) to measure PTP inhibitory activity. (C) Time dependence. The PTPRZ1 enzyme was added to the inhibitor–substrate mixture, and the inhibitory activity was determined at each time point relative to the vehicle control. (D) Reversibility of inhibition. PTPRZ1 enzymes were preincubated with NAZ2329 at the indicated concentrations for 30 min. The mixture was then 20-fold diluted, and recovered PTP activity was expressed as the relative activity compared with the vehicle-treated enzyme. (E) Lineweaver-Burk plot analysis. PTPRZ1 enzymes were preincubated with NAZ2329 for 60 min, and the PTP activity was measured using DiFMUP. (F) Concentration-inhibition curves of NAZ2329 for representative PTP members, including human PTPRZ and PTPRG (another R5 RPTP subfamily member), human PTPRS (R2A subfamily), human PTPRM (R2B subfamily), mouse PTPRB (R3 subfamily), human PTPRA (R4 subfamily), human PTPN1 (non-transmembrane PTP, NT1 subfamily), and human PTPN6 (NT2 subfamily), were generated. Assays were performed using DiFMUP. IC50 values obtained are shown in the inset. Data represent the averages of two or three separate experiments. TEXT PRINTED IN THE PICTURE: (F) NAZ2329: IC50 (μM): hPTPRZ1 7.5; IC50 (μM): hPTPRG 4.8; IC50 (μM): hPTPRA 35.7; IC50 (μM): hPTPRM 56.7; IC50 (μM): hPTPRS 23.7; IC50 (μM): mPTPRB 35.4; IC50 (μM): hPTPN6 15.2; IC50 (μM): hPTPN1 14.5
Recombinant proteins corresponding to the entire intracellular regions (ICRs) of PTPRZ1, PTPRA, and PTPRM were expressed using a baculovirus-silkworm expression system, and purified as described. The ICRs of PTPRG, PTPRS, and PTPRB and the catalytic domains of PTPN1 and PTPN6 were expressed as glutathione-S-transferase (GST) fusion proteins from each pGEX plasmid in Escherichia coli strain BL21 (ref. [6]). GST fusion proteins were purified by glutathione affinity chromatography as described. Chondroitinase ABC (chABC) was purchased from Sigma-Aldrich (catalog #C3667). Anti-PTPRZ-S, rabbit polyclonal antibodies against the extracellular region of PTPRZ was described previously (ref. [44]). The following are the specificities and sources of the commercially available antibodies used in the present study: Anti-RPTPβ (a monoclonal antibody against the intracellular domain of PTPRZ1 receptors, #610179, BD Biosciences), anti-SOX2 (#ab97959, Abcam), anti-POU3F2 (#12137, Cell Signaling), anti-OLIG2 (#AB9610, Millipore), anti-SALL2 (#12679–1-AP, Proteintech Group), anti-GAPDH (#ab9482, Abcam) anti-phosphotyrosine (PY20; #ab16389, Abcam), and anti-pY118-paxillin (#2541, Cell Signaling), mouse anti-paxillin antibody (#610569, BD Bioscience), anti-MBP (#sc-13914, Santa Cruz Biotechnology), and anti-NG2 proteoglycan (#AB5320, Millipore). […]

hPTPN1 = biological target: T2, hPTPN1 (Homo sapiens, UniProt P18031); experiment: In vitro PTPase assay (DiFMUP), PTPN1; assay type: biochemical; conditions: 60-min preincubation
T2 construct: the catalytic domains of PTPN1 and PTPN6 were expressed as glutathione-S-transferase (GST) fusion proteins; GST (N); made in house; host or cells: Escherichia coli BL21
T2 sequence (P18031 3-277 limits assumed): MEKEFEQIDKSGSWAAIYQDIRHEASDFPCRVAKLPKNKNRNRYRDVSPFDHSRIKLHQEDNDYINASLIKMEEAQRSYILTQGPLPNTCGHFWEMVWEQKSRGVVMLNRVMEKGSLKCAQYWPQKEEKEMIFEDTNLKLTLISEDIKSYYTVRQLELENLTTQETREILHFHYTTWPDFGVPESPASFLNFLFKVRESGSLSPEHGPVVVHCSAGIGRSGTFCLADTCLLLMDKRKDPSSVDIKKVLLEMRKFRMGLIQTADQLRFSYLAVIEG
Procedure: Figure 4 NAZ2329, an allosteric inhibitor of R5 RPTP subfamily members. (A) Structure of NAZ2329. (B) Effect of preincubation of NAZ2329 on its inhibitory activity against PTPRZ. Recombinant human PTPRZ1 enzyme (the whole intracellular region) was premixed with NAZ2329 for the indicated times and followed by addition of a fluorogenic DiFMUP (non-specific PTP substrate, 6,8-difluoro-4-methylumbiliferyl phosphate) to measure PTP inhibitory activity. (C) Time dependence. The PTPRZ1 enzyme was added to the inhibitor–substrate mixture, and the inhibitory activity was determined at each time point relative to the vehicle control. (D) Reversibility of inhibition. […] The mixture was then 20-fold diluted, and recovered PTP activity was expressed as the relative activity compared with the vehicle-treated enzyme. […] PTPRZ1 enzymes were preincubated with NAZ2329 for 60 min, and the PTP activity was measured using DiFMUP. […]
Recombinant proteins corresponding to the entire intracellular regions (ICRs) of PTPRZ1, PTPRA, and PTPRM were expressed using a baculovirus-silkworm expression system, and purified as described. The ICRs of PTPRG, PTPRS, and PTPRB and the catalytic domains of PTPN1 and PTPN6 were expressed as glutathione-S-transferase (GST) fusion proteins from each pGEX plasmid in Escherichia coli strain BL21 (ref. [6]). […]

T1 sequence (P23471 1663-2315 limits assumed): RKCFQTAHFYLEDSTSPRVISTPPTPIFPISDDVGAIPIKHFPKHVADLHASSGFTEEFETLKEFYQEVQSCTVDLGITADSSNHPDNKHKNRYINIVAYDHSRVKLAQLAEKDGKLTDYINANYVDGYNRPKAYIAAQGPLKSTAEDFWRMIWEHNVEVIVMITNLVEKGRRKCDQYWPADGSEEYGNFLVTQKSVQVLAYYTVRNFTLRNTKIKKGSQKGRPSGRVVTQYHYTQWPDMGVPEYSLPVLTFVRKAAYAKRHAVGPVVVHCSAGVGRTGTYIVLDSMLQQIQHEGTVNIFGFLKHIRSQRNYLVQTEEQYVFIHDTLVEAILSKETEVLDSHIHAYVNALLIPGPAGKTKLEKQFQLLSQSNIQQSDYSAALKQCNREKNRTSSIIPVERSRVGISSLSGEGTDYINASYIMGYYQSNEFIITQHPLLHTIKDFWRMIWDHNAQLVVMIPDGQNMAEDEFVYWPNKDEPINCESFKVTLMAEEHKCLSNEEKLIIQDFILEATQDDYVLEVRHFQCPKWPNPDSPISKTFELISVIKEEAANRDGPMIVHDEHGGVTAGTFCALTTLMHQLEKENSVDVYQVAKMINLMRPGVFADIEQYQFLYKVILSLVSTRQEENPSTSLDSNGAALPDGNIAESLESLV

- reversibility: enzymatic activity after 20-fold dilution of enzyme-compound mixture ([1]; 30 min preincubation, then 20-fold dilution): fully recovered to the control level
- type of inhibition (Lineweaver-Burk plot) ([1]; 60 min preincubation, DiFMUP): noncompetitive-type inhibition
- IC50 ([1]; whole intracellular region, DiFMUP, 60-min preincubation, read-out: IC50 hPTPRZ1 (D1+D2)): 7.5 µM
- IC50 (hPTPN1): 14.5 µM
SMILES: CCOc1ccc(C(F)(F)F)cc1CSc1ccsc1C(=O)NS(=O)(=O)c1ccccc1 [NAZ2329]

From PMC5514153, “Targeting PTPRZ inhibits stem cell-like properties and tumorigenicity in glioblastoma cells” (Scientific Reports, 2017)
